Laboratory results reported in PMC8160850 (Viruses, 2021).
Where “and” joins values, the source holds several entries; their conditions need not be identical. Equal values may be shown once. Read-outs that look alike come from different tables or passages of the source.

Columns and labels:
MRC5 cells [1] = format: cell-based
MRC5 cells [2] = test: Cell viability of uninfected cells in the screening; format: cell-based; conditions: 7 days
HCMV TB4-UL83-EYFP [3] = format: cell-based, human cytomegalovirus (HCMV); conditions: 7 days p.i., MOI 0.03 IU/cell
[4] = MTT cell cytotoxicity assay; format: cell-based; conditions: human, uninfected MRC5 cells, MTT, uninfected MRC5, 7 days
MRC5 cells [5] = test: MTT cell cytotoxicity assay; format: cell-based; conditions: for Selectivity index (SI), CC50/ED50: MTT CC50 / FRA ED50 TB4-UL83-EYFP; for Cytotoxicity (in words): MRC5, up to 100 μM, 7 days
MRC5 cells [6] = test: Intracellular ATP quantification; format: cell-based; conditions: for Reduction of intracellular ATP levels: 100 μM
HCMV AD169 = test: Plaque reduction assay (PRA) in HFF cells; format: cell-based, human cytomegalovirus (HCMV)
AD169-GFP [7] = test: FRA with AD169-GFP in MRC5 cells; format: cell-based, human cytomegalovirus (HCMV); conditions: MRC5, MOI 0.05 IU/cell, 7 days, n = 6
AD169-GFP26 (UL97 M460I) [8] = test: FRA with GCV-resistant AD169-GFP26 in MRC5 cells; format: cell-based, human cytomegalovirus (HCMV); conditions: MRC5, MOI 0.05 IU/cell, 7 days, n = 6
AD169-GFP [9] = test: Virus yield reduction assay (VYRA) with AD169-GFP; format: cell-based, human cytomegalovirus (HCMV); conditions: n = 4
AD169-GFP26 (UL97 M460I) [10] = test: Virus yield reduction assay (VYRA) with AD169-GFP26; format: cell-based, human cytomegalovirus (HCMV); conditions: AD169-GFP26 (GCV-resistant), n = 4
[11] = test system: HCMV AD169 gene expression (IE1, ppUL44, pp65, pp28); test: Analysis of HCMV gene expression by Western blotting in infected MRC5 cells; format: cell-based, human cytomegalovirus (HCMV); conditions: GCV 16 μM, B3 50 μM; for IE1 expression: 6 and 12 h p.i., AD169 MOI 2 IU/cell; for Expression of ppUL44 and pp65: 48 h p.i.; for pp28 expression: 72 h and 96 h p.i.; for ppUL44 and pp65 levels: up to 24 h p.i.
[12] = test system: HCMV TB4-UL83-EYFP genome; test: Analysis of HCMV DNA replication by qPCR in infected MRC5 cells; format: cell-based, human cytomegalovirus (HCMV); conditions: for Decrease in viral genome copy number: B3 50 μM, MOI 0.01 IU/cell
hepatitis C virus (HCV) = test system: hepatitis C virus (HCV); parameters: method as in earlier work; conditions: Huh7-Lunet cells ref 60; cited from earlier work
HCMV TB4-UL83-EYFP [13] = test: Dose-response fluorescence reduction assay; format: cell-based, human cytomegalovirus (HCMV); conditions: FRA, MRC5, MOI 0.03 IU/cell, 7 days p.i.

SMILES: CCOc1ccccc1[C@H]1C(C#N)=C(SCC(=O)OC)NC(=O)[C@@H]1C#N [A4]
- Solubility in culture medium (precipitates) (MRC5 cells [1]): not soluble
- Cytotoxicity (MRC5 cells [2]; 10 μM, uninfected MRC5): caused evident cytotoxicity

SMILES: OC[C@@H](O)Cn1c(Cc2cccc3ccccc23)nc2ccccc21 [B3]
- Inhibition of viral replication (YFP fluorescence) (HCMV TB4-UL83-EYFP [3]; 10 μM): inhibited viral replication
- CC50 at 7 days [4]: > 100 µM
- Selectivity index (SI), CC50/ED50 (MRC5 cells [5]): > 20
- Cytotoxicity (in words) (MRC5 cells [5]; MTT): did not cause evident cytotoxicity up to 100 μM
- Effect on intracellular ATP levels (MRC5 cells [6]; all time points analyzed (24, 72, 144 h)): minimal effects
- ED50 (HCMV AD169): 7.9 ± 3.5 µM
- ED50 (AD169-GFP [7]): 7.9 µM and 7.9 ± 2.7 µM
- ED50 (AD169-GFP26 (UL97 M460I) [8]): 17.6 ± 12.8 µM
- ED50 (AD169-GFP [9]): 5.1 ± 3.3 µM
- ED50 (AD169-GFP26 (UL97 M460I) [10]): 9.8 ± 15.6 µM
- IE1 expression [11]: neither GCV nor B3 treatment affected IE1 expression
- Expression of ppUL44 and pp65 [11]: decrease
- pp28 expression [11]: strongly inhibited
- ppUL44 and pp65 levels [11]: not affected
- Decrease in viral genome copy number ([12]; 72 h p.i.): ~ 4 fold
- Decrease in viral genome copy number ([12]; 120 h p.i.): 6 fold
- Effect on protein expression and hepatitis C virus replication (hepatitis C virus (HCV)): did not affect either protein expression nor hepatitis C virus replication

SMILES: Cc1ccc(-c2nnc(Nc3ccc(CC(N)=O)cc3)c3ccccc23)cc1S(=O)(=O)NC1CCCCC1 [B6]
- Inhibition of viral replication (YFP fluorescence) (HCMV TB4-UL83-EYFP [3]; 10 μM): inhibited viral replication
- ED50 (HCMV TB4-UL83-EYFP [13]): 2.1 ± 0.6 µM
- CC50 at 7 days [4]: ~10 µM
- Selectivity index (SI), CC50/ED50 (MRC5 cells [5]): < 5
- CC50 (MRC5 cells [5]; MTT, uninfected MRC5, 7 days): 10.7 ± 2.3 µM
- Reduction of intracellular ATP levels (MRC5 cells [6]; 24 h post treatment): more than 50%
- Reduction of intracellular ATP levels (MRC5 cells [6]; 72 h post treatment): ~100%

SMILES: O=C(O)C[C@H]1S/C(=N/N=C/c2c(OCc3ccccc3Cl)ccc3ccccc23)NC1=O [C6]
- Inhibition of viral replication (YFP fluorescence) (HCMV TB4-UL83-EYFP [3]; 100 μM): impaired viral replication
- Cell morphology upon microscopic evaluation (MRC5 cells [1]): significantly altered
- Reduction of cell viability (MRC5 cells [2]; 100 μM, MTS and CellTiter Glo): ≤ 40%
- CC50 at 7 days [4]: > 100 µM
- Cytotoxicity (in words) (MRC5 cells [5]; MTT): low cytotoxicity
- Reduction of intracellular ATP levels (MRC5 cells [6]; 24 h post treatment): more than 30%

SMILES: Nc1nc(O)c2ncn(COC(CO)CO)c2n1 [GCV, Ganciclovir, reference compound]
- CC50 at 7 days [4]: > 100 µM
- Cytotoxicity (in words) (MRC5 cells [5]; MTT): did not cause detectable cytotoxic effects at any concentration tested
- ED50 (HCMV AD169): 1.3 ± 0.9 µM
- ED50 (AD169-GFP [7]): 2.3 µM and 2.3 ± 1.9 µM
- ED50 (AD169-GFP26 (UL97 M460I) [8]): 21.7 ± 9.6 µM
- ED50 (AD169-GFP [9]): 0.7 µM and 0.7 ± 0.4 µM
- ED50 (AD169-GFP26 (UL97 M460I) [10]): 4.7 ± 4.8 µM
- IE1 expression [11]: neither GCV nor B3 treatment affected IE1 expression
- Expression of ppUL44 and pp65 [11]: decrease
- pp28 expression [11]: strongly inhibited
- ppUL44 and pp65 levels [11]: not affected
- Viral genome copy number (in words) ([12]; GCV 16 μM, starting from 72 h p.i.): significantly reduced viral genome copy number
